Measured values from US10065957B2, “Beta-lactamase inhibitors” (Novartis AG, priority 2016, dated 2018).

Tests used:
Format in all cases: cell-based
[1] = tested on: E. coli (CTX-M-15); test: microbe, parasite or virus in culture; conditions: Escherichia coli, Pip alone, read-out: MIC of piperacillin
Procedure: (§1) MICs were determined by the broth microdilution method in accordance with Clinical and Laboratories Institute (CLSI) guidelines. In brief, fresh overnight bacterial cultures were suspended in sterile saline, and adjusted to a 0.5 McFarland turbidity standard. Bacterial suspensions were then diluted in cation adjusted Mueller-Hinton Broth (MHB II; BBL) to yield a final inoculum of approximately 5×10^5 colony-forming units (CFU)/mL. A master plate of antibiotics was prepared at a concentration equivalent to hundred-fold the highest desired final concentration in 100% dimethyl sulfoxide (DMSO). The master antibiotic plate was then diluted by serial twofold dilution with a multichannel pipette. The resulting dilution series of compounds were diluted 1:10 with sterile water or a solution of beta-lactamase inhibitor prepared at a concentration equivalent to eleven-fold the desired final concentration in deionized water leading to a 10% DMSO final concentration. A volume of 10 μL of the drug dilution series was transferred to 96-well assay plates. Assay plates were inoculated with 90 μL of bacterial suspensions and incubated at 35° C. for 20 hrs. The assay plates were read using a microtiter plate reader (Molecular Devices) at 600 nm as well as by visual observation with a reading mirror. The lowest concentration of the compound that prevented visible growth was recorded as the MIC.
(§2) Synergy or potentiation of beta-lactam antibiotics through inhibition of Q-lactamases was assessed against an isogenic panel of E. coli strains, each expressing a unique beta-lactamase, and against clinical strains.
(§3) Strain NB27273 (BW25113 pspB::Km^r) was obtained from the Keio transposon insertion collection. The strain has the pspB gene replaced by a kanamycin resistance marker (BW25113 pspB::Km^r). This strain was cured of the transposon in pspB via FLP recombinase using published methodology. The resulting strain, BW25113 pspB, was used as a host for multicopy vectors expressing key beta-lactamases. Multicopy plasmids directing constitutive expression of beta-lactamases were established as follows: Synthetic, codon optimized genes encoding E. coli KPC-2, SHV-12 and CTX-M-15 beta-lactamases were made by DNA2.0 (Palo Alto, Calif.). Each of the synthetic fragments were designed to contain NotI and NcoI restriction sites at their termini, allowing ligation into a NotI/NcoI digested pET28a(+) derivative for protein expression. […] The codon optimized nucleotide sequences and relevant primer recognition information is shown below:
(§4) The PCR products were then digested with XhoI and EcoRI and ligated into similarly digested plasmid pAH63-pstS(BlaP). […] Therefore, expression of beta-lactamases from pAH63-pstS(BlaP) based constructs is constitutive and the signal sequence is provided to direct these proteins to the periplasm. […] These fragments were then digested with XbaI and EcoRI, and each was inserted into pBAD18-kan that had been digested with the same enzymes to generate multicopy vectors expressing KPC-2, SHV-12 and CTX-M-15, respectively. These vectors were transformed into BW25113 pspB to generate strains NB27273-CDY0033 (expressing KPC-2), NB27273-CDY0030 (expressing SHV-12), NB27273-CDY0034 (expressing CTX-M-15) and NB27273-CDY0036 (expressing AmpC). The pBAD18-kan vector also contains the TEM promoter region and signal sequence, (but lacks any intact beta-lactamase genes) and was transformed into BW25113 pspB using standard protocols to generate the control strain NB27273-CDY0026.

[2] = tested on: E. coli (KPC-2); test: microbe, parasite or virus in culture; conditions: Escherichia coli, read-out: MIC of piperacillin
Procedure: as §1, §2, §3, §4

[3] = tested on: E. coli (SHV-12); test: microbe, parasite or virus in culture; conditions: Escherichia coli, Pip alone, read-out: MIC of piperacillin
Procedure: as §1, §2, §3, §4

[4] = tested on: E. coli (TEM-10); test: microbe, parasite or virus in culture; conditions: Escherichia coli, Pip alone, read-out: MIC of piperacillin
Procedure: as §1, §2
(§5) Construction of E. coli isogenic strains, NB27273-CDY0105 (OXA-18) and NB27273-CDY0048 (TEM-10). […] The gene encoding OXA-18 was then digested with XhoI and EcoRI and inserted into this vector, from which the gene for GIM-1 had been removed with XhoI and EcoRI.
From this template DNA, three fragments were generated by PCR using the following primer pairs;
This fragment was then digested with XbaI and EcoRI and inserted into pBAD-kan which was also cut with the same enzymes.
(§6) These final vectors for expression of OXA-18 and TEM-10 were transformed into BW25113 pspB to generate strains NB27273-CDY0105 (expressing OXA-18) and NB27273-CDY0048 (expressing TEM-10).

[5] = tested on: E. coli (AmpC); test: microbe, parasite or virus in culture; conditions: Escherichia coli, Pip alone, read-out: MIC of piperacillin
Procedure: as §1, with “MIC. Performance of the assay was monitored by testing aztreonam against laboratory quality control strains in accordance with guidelines of the CLSI.” for “MIC.”
as §2
The gene encoding AmpC was PCR amplified from the genome of strain P. aeruginosa PAO1 (NB52019) (GenBank ID U5R279) using primer pair E252 (gccCTCGAGggcgaggccccggcggatcgc) (SEQ ID NO: 17) and E253 (tgaGAATTCtcagcgcttcagcggcacct) (SEQ ID NO: 18).
The PCR products were then digested with XhoI and EcoRI and ligated into similarly digested plasmid pAH63-pstS(BlaP). Plasmid pAH63-pstS(BlaP) is a derivative of plasmid pAH63 (J Bacteriol: 183(21): 6384-6393) made by cloning the TEM-1 (bla) promoter and signal peptide encoding region from plasmid pBAD (J Bacteriol. 1995 July 177(14):4121-30) into plasmid pAH63. This fragment was PCR amplified from pBAD using primer pair E192 (ttcaCTGCAGtgaacgttgcgaagcaacggC) (SEQ ID NO:19) and E194 (TCGAggatcctcgagagcaaaaacaggaaggcaaaatgccg) (SEQ ID NO:20), digested with PstI and BamHI and inserted into similarly digested plasmid pAH63. Therefore, expression of beta-lactamases from pAH63-pstS(BlaP) based constructs is constitutive and the signal sequence is provided to direct these proteins to the periplasm. Plasmid pAH63 based vectors are used for insertion into the genome in single copy, however, to provide higher expression levels to allow more sensitive detection of the susceptibility of compounds to the expressed beta-lactamases, the expression inserts contained in these vectors were moved to the replicative multicopy vector pBAD-Kan (J Bacteriol. 1995 July 177(14):4121-30). To accomplish this, the inserts encompassing the beta-lactamase genes, with the associated TEM promoter and signal sequences, were PCR amplified from their corresponding vectors using primer E268 (ccgTCTAGAcggatggcctttttgcgtttc) (SEQ ID NO:21) and E202 (aatcGAATTCttactgaccattaacgcccaagc) (SEQ ID NO:22) for the KPC2 construct, E204 (aatcGAATTCttaacgctgccagtgctcaatc) (SEQ ID NO:23) for the SHV-12 construct and E203 (aatcGAATTCttacagaccgtcggtgacaatc) (SEQ ID NO:24) for the CTX-M-15 construct. These fragments were then digested with XbaI and EcoRI, and each was inserted into pBAD18-kan that had been digested with the same enzymes to generate multicopy vectors expressing KPC-2, SHV-12 and CTX-M-15, respectively. […]

[6] = tested on: E. coli (OXA-18); test: microbe, parasite or virus in culture
Procedure: as §1, §2, §5, §6

[7] = tested on: Enterobacter cloacae NB25055 (CMY-2); test: Potentiation of piperacillin in beta-lactam resistant clinical isolate
Procedure: as §1, with “MIC. Performance of the assay was monitored by testing aztreonam against laboratory quality control strains in accordance with guidelines of the CLSI.” for “MIC.”
as §2

[8] = tested on: K. pneumoniae NB29082 (KPC-2); test: as above
Procedure: as §1, with “MIC. Performance of the assay was monitored by testing aztreonam against laboratory quality control strains in accordance with guidelines of the CLSI.” for “MIC.”
as §2

[9] = tested on: S. aureus NB01437 (BLA+); test: as above
Procedure: as §1, with “MIC. Performance of the assay was monitored by testing aztreonam against laboratory quality control strains in accordance with guidelines of the CLSI.” for “MIC.”
as §2

| SMILES | MIC [1] [µg/mL] | MIC [2] [µg/mL] | MIC [3] [µg/mL] | MIC [4] [µg/mL] | MIC [5] [µg/mL] | MIC ([6]; Escherichia coli, Pip alone, read-out: MIC of piperacillin) [µg/mL] | Activity of piperacillin ([7]; piperacillin alone) [µg/mL] | Activity of piperacillin ([8]; piperacillin alone) [µg/mL] | Activity of piperacillin ([9]; piperacillin alone) [µg/mL] | MIC of piperacillin with beta-lactamase inhibitor ([6]; Pip + BLI at 4 μg/mL) [µg/mL] | Activity of piperacillin with beta-lactamase inhibitor ([7]; Pip + BLI at 4 μg/mL) [µg/mL] | Activity of piperacillin with beta-lactamase inhibitor ([8]; Pip + BLI at 4 μg/mL) [µg/mL] | Activity of piperacillin with beta-lactamase inhibitor ([9]; Pip + BLI at 4 μg/mL) [µg/mL] |
| --- | --- | --- | --- | --- | --- | --- | --- | --- | --- | --- | --- | --- | --- |
| CCN1CCN(C(=O)N[C@@H](C(=O)N[C@@H]2C(=O)N3C2SC(C)(C)[C@@H]3C(=O)O)c2ccccc2)C(=O)C1=O (stereo partly shown) [Piperacillin] | > 32 | > 32 | > 32 | > 32 | > 32 | > 32 | >64 | >64 | 64 |  |  |  |  |
| C[C@]1(Cn2ccnn2)[C@H](C(=O)O)N2C(=O)C[C@H]2S1(=O)=O [Tazobactam] |  |  |  |  |  |  |  |  |  | 8 | 64 | >64 | 1 |
